Source: the supplement of paper PMC6723410

What was measured:
GUMC-403 [1] = experiment: viability at highest tested concentration (max response) relative to DMSO (% of DMSO control); higher = less cytotoxic; details: library / dose series: MIPE library, 11-point 1:3 dilution, 48 h
Outline: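 Each figure stands for viability at the highest tested concentration compared with vehicle control. It was measured by CellTiter-Glo luminescence on a ViewLux after 48 h of exposure to 23 nL of pinned compound, with vehicle wells taken as 100% and empty wells as 0%. The cells were patient-derived GUMC-403 papilloma cells grown by conditional reprogramming, plated at 700/well in 5 μL F + Y medium in 1536-well plates.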

GUMC-403 [2] = experiment: AC50 for reduction of cell viability; higher = less potent; details: library / dose series: MIPE library, 11-point 1:3 dilution; 48 h

CC1(COc2ccc3c(c2)ncn3-c2ccc3cccc(N4CCC(N)CC4)c3n2)COC1
viability (GUMC-403 [1]; top concentration 46.1 µM): 51.9
AC50 for reduction of cell viability (GUMC-403 [2]): 0.0105 µM

CN(C)c1ccc2cc(C(=O)N[C@@H](CCCNC(=N)CCl)C(=O)NCc3ccccc3)ccc2c1
viability (GUMC-403 [1]; top concentration 46.1 µM): 46.3
AC50 for reduction of cell viability (GUMC-403 [2]): 20.9 µM

CC(C)C[C@H](NC(=O)CNC(=O)c1cc(Cl)ccc1Cl)B(O)O
viability (GUMC-403 [1]; top concentration 46.1 µM): 14.7
AC50 for reduction of cell viability (GUMC-403 [2]): 3.32 µM

CNCC[C@H](Oc1cccc2ccccc12)c1cccs1
viability (GUMC-403 [1]; top concentration 46.1 µM): 36
AC50 for reduction of cell viability (GUMC-403 [2]): 10.5 µM

O=C(Nc1c[nH]nc1-c1nc2cc(CN3CCOCC3)ccc2[nH]1)NC1CC1
viability (GUMC-403 [1]; top concentration 46.1 µM): 8.38
AC50 for reduction of cell viability (GUMC-403 [2]): 6.62 µM

CC(C)c1cnn2c(NCc3ccccc3)cc(N[C@@H](CO)[C@H](O)CO)nc12
viability (GUMC-403 [1]; top concentration 46.1 µM): 19.1
AC50 for reduction of cell viability (GUMC-403 [2]): 0.372 µM

CCOc1cc2ncc(C#N)c(Nc3ccc(OCc4ccccn4)c(Cl)c3)c2cc1NC(=O)/C=C/CN(C)C
viability (GUMC-403 [1]; top concentration 46.1 µM): 54.2
AC50 for reduction of cell viability (GUMC-403 [2]): 0.0743 µM

COc1cc(N2CCC(C(N)=O)CC2)ccc1Nc1nc(N)c(Cl)c(Nc2ccccc2[S+](=O)([O-])C(C)C)n1
viability (GUMC-403 [1]; top concentration 46.1 µM): 68.2
AC50 for reduction of cell viability (GUMC-403 [2]): 8.33 µM

COc1cc(Nc2c(C#N)cnc3cc(OCCCN4CCN(C)CC4)c(OC)cc23)c(Cl)cc1Cl
viability (GUMC-403 [1]; top concentration 46.1 µM): 74.7
AC50 for reduction of cell viability (GUMC-403 [2]): 2.35 µM

CCN(CC)CCNC(=O)c1c(C)[nH]c(/C=C2\C(=O)Nc3ccc(F)cc32)c1C
viability (GUMC-403 [1]; top concentration 92.2 µM): 5.58
AC50 for reduction of cell viability (GUMC-403 [2]): 42.9 µM

CNC(=O)c1nn(C)c2c1C(C)(C)Cc1cnc(Nc3ccc(N4CCN(C)CC4)cc3)nc1-2
viability (GUMC-403 [1]; top concentration 46.1 µM): 58.7
AC50 for reduction of cell viability (GUMC-403 [2]): 4.69 µM

COC(=O)Nc1ccc(-c2nc(N3CCOCC3)c3cnn(C4CCN(Cc5cccnc5)CC4)c3n2)cc1
viability (GUMC-403 [1]; top concentration 46.1 µM): 23.5
AC50 for reduction of cell viability (GUMC-403 [2]): 1.05 µM

Cc1ccc2nc(NCCN)c3ncc(C)n3c2c1
viability (GUMC-403 [1]; top concentration 46.1 µM): 33.4
AC50 for reduction of cell viability (GUMC-403 [2]): 13.2 µM

O=C1c2c(O)ccc(O)c2C(=O)c2c(NCCNCCO)ccc(NCCNCCO)c21
viability (GUMC-403 [1]; top concentration 46.1 µM): 12.4
AC50 for reduction of cell viability (GUMC-403 [2]): 7.43 µM

Cc1c(CN2CCN([S+](C)(=O)[O-])CC2)sc2c(N3CCOCC3)nc(-c3cnc(N)nc3)nc12
viability (GUMC-403 [1]; top concentration 46.1 µM): 41.9
AC50 for reduction of cell viability (GUMC-403 [2]): 0.118 µM

COCCn1c2c([n+](Cc3cnccn3)c1C)C(=O)c1ccccc1C2=O
viability (GUMC-403 [1]; top concentration 46.1 µM): 5.13
AC50 for reduction of cell viability (GUMC-403 [2]): 0.187 µM

COC1=C2C[C@@H](C)C[C@H](OC)[C@H](O)[C@@H](C)/C=C(\C)[C@H](OC(N)=O)[C@@H](OC)/C=C/C=C(\C)C(=O)NC(=CC1=O)C2=O
viability (GUMC-403 [1]; top concentration 46.1 µM): 23.9
AC50 for reduction of cell viability (GUMC-403 [2]): 4.69 µM

Cc1nc(N)sc1-c1ccnc(Nc2ccc(N3CCOCC3)cc2)n1
viability (GUMC-403 [1]; top concentration 46.1 µM): 29.8
AC50 for reduction of cell viability (GUMC-403 [2]): 26.4 µM

C[C@H](NCc1ccc2c(c1)nc(NC(=O)c1ccc(-c3cn[nH]c3)s1)n2CCc1ccccc1)C(C)(C)C
viability (GUMC-403 [1]; top concentration 46.1 µM): 8.07
AC50 for reduction of cell viability (GUMC-403 [2]): 3.72 µM

CC(C)c1cc(C(=O)N2Cc3ccc(CN4CCN(C)CC4)cc3C2)c(O)cc1O
viability (GUMC-403 [1]; top concentration 46.1 µM): 75.9
AC50 for reduction of cell viability (GUMC-403 [2]): 0.833 µM

CC(C)C1=C(O)C=C(O)C(=C1)C/2=N/NC(=O)N2C3=CC4=C(C=C3)[N](C)C=C4
viability (GUMC-403 [1]; top concentration 46.1 µM): 61.4
AC50 for reduction of cell viability (GUMC-403 [2]): 0.148 µM
